Read-outs that look alike come from different tables or passages of the source.
Columns and labels:
[1] = tested on: neovascularization; details: retina; literature; cited from earlier work
[2] = tested on: experimental animals with DR, AMD, DME, retinopathy of prematurity; experiment: intravitreal injection in experimental animals with DR, AMD, DME, retinopathy of prematurity (Examples 5-7, FIG. 16); type: in vivo; details: for regression of DR, AMD, DME, retinopathy of prematurity: all doses
Source text: The degree of DR in control is taken as 100% which received only the vehicle. All bioactive lipids are able to suppress/reverse/arrest DR to a significant degree. […] Similar results were obtained with AMD, DME and retinopathy of prematurity. AVA=Anti-VEGF antibody; LRPM=Lipoxin A4+resolvin+protectin+maresin; AVA+LRPM=Anti-VEGF antibody+Lipoxin A4+resolvin+protectin+maresin.
[…] with DR, AMD, DME, retinopathy of prematurity (each group consisting of 10 animals: total 40 animals) were treated by direct intravitreal injection of LXA4 free acid form of composition according the examples 1-4 in doses ranging from 10.0 μg/day once in a week for 4 weeks.
In another study, this was similar to the study given in Example 5, except that in this instance different bioactive lipids singly and in combination were tested. Thus, in this study, experimental animals received LXA4, resolvin E1, resolvin D1, protectin D1, maresin 1 or a combination of LXA4+resolvin E1+protectin D1+maresin 1 (in the ratio of 1:1:1:1) were given with appropriate control groups. In this study, different doses of bioactive lipids were used either 5 ng, 10 ng, 15 ng, 20 ng, 50 ng, 100 ng, 200 ng, 500 ng, 1 μg, 5 μg or ranging from 10.0 μg to 100.0 μg per week for 4 weeks; once in 4 weeks for 3 months.
(§1) In another study, this was similar to the study given in Examples 5 and 6, except that in this instance different bioactive lipids singly and in combination were tested in combination with or without anti-VEGF antibody. Thus, in this study, experimental animals received LXA4, resolvin E1, resolvin D1, protectin D1, maresin 1 or a combination of LXA4+resolvin E1+protectin D1+maresin 1 (in the ratio of 1:1:1:1)±anti-VEGF antibody were given with appropriate control groups. In this study, dose of bioactive lipids used was 5 ng, 10 ng, 15 ng, 20 ng, 50 ng, 100 ng, 200 ng, 500 ng, 1 μg, 5 μg, or 25.0 μg once in 4 weeks for 3 months. […] A summary of the results obtained with bioactive lipids on angiogenesis (FIG. 10) in vitro; on STZ-induced cytotoxicity to vascular endothelial cells (FIG. 11); on LPS-induced IL-6 and TNF-α secretion by human macrophages in vitro (FIG. 12); on PGE2 and VEGF secretion by LPS stimulated ARPE cells in vitro (FIG. 13); leukocyte migration and adherence to endothelial cells in vitro (FIG. 14); and BDNF secretion by ARPE cells stimulated by LPS (FIG. 15) are given in respective figures.

[3] = tested on: adult human retinal pigment epithelial cells, ARPE 19 cells; experiment: production of BDNF by ARPE 19 cells exposed to LPS (FIG. 15); type: cell-based; details: saline control taken as 100%
Procedure: C=Saline control taken as 100%; LPS=LPS-induced decrease in BDNF production; RSv=Resolvin E1; PRt=Protectin D1; MaR=Maresin; L+R+P+M=LXA4=resolvin D1+Protectin D1+Maresin in 1:1:1:1 ratio.
as §1

[4] = tested on: VEGF-induced angiogenesis; experiment: effect of bioactive lipids on angiogenesis induced by VEGF in vitro (FIG. 10); type: cell-based; details: positive test control taken as 100%
Procedure: C=Control; T=positive test control taken as 100%; RSv=Resolvin E1; PRt=Protectin D1; MaR=Maresin; L+R+P+M=LXA4=resolvin D1+Protectin D1+Maresin in 1:1:1:1 ratio.
as §1

[5] = tested on: vascular endothelial cells; experiment: STZ-induced cytotoxic action on vascular endothelial cells in vitro (FIG. 11); type: cell-based; details: STZ cytotoxicity taken as 100%
Procedure: C=Control; STZ=Streptozotocin-induced cytotoxicity taken as positive control taken as 100%; RSv=Resolvin E1; PRt=Protectin D1; MaR=Maresin; L+R+P+M=LXA4=resolvin D1+Protectin D1+Maresin in 1:1:1:1 ratio.
as §1

[6] = tested on: human macrophage cells; experiment: production of IL-6 and TNF-α by human macrophage cells stimulated with LPS in vitro (FIG. 12); type: cell-based; details: LPS stimulated increase taken as 100%
Procedure: C=Control; LPS stimulated increase in IL-6 and TNF-α production taken as 100%; RSv=Resolvin E1; PRt=Protectin D1; MaR=Maresin; L+R+P+M=LXA4=resolvin D1+Protectin D1+Maresin in 1:1:1:1 ratio.
as §1

[7] = tested on: adult human retinal pigment epithelial cells, ARPE 19 cells; experiment: production of PGE2 and VEGF by ARPE 19 cells exposed to LPS (FIG. 13); type: cell-based; details: LPS positive control taken as 100%
Procedure: C=Control; LPS=Positive control taken as 100%; RSv=Resolvin E1; PRt=Protectin D1; MaR=Maresin; L+R+P+M=LXA4=resolvin D1+Protectin D1+Maresin in 1:1:1:1 ratio.
as §1

[8] = tested on: leukocyte migration and adherence; experiment: leukocyte migration and adherence stimulated by LPS in vitro (FIG. 14); type: cell-based; details: LPS positive control taken as 100%
Procedure: C=Control; LPS=positive control taken as 100%; RSv=Resolvin E1; PRt=Protectin D1; MaR=Maresin; L+R+P+M=LXA4=resolvin D1+Protectin D1+Maresin in 1:1:1:1 ratio.
as §1

[9] = effect of ethanol and albumin on stability of LXA4 in solution in vitro (Example 8, FIGS. 17-18); type: physicochemical
Procedure: C=Control (100%); Concentration of LXA4 used in the test system is 10 μg to which different concentrations of albumin is added and after a specific period of incubation the concentration of LXA4 present in the solution is tested. It is seen that when the % of albumin exceeded 0.01%, the stability of LXA4 is decreased. […] The test system used: LXA4 is dissolved in 0.01% ethanol (pH 7.4) at 37° C. to which different concentrations of albumin is added and at the end of incubation time the concentration of LXA4 present is tested to know whether albumin would influence the stability of LXA4 in the solution.
Concentration of LXA4 tested 100 ng. […] C=Control (100%) (expected). Various doses of albumin were added to LXA4 solution in saline/PBS/ethanol and the stability of LXA4 was tested at the end of different periods of incubation in days. Results were best when ethanol concentration in the solution is between 0.01 to 0.0001% and albumin concentration is between 0.01 to 0.0001%.
The effect of albumin as an exemplary stabilizing agent in compositions of bioactive lipids was tested as follows: To 250 ng of LXA4 dissolved in a solution of saline/PBS with or without 0.01% ethanol was added different concentrations of albumin and after a specific period of incubation the concentration of LXA4 present in the solution was tested.

[10] = production of other bioactive lipids (observation)
Source text: Thus, one bioactive lipid enhances the production and action of other bioactive lipids. In a surprise observation, inventor noted that LXA4 and other bioactive lipids function as autocrine factors enhancing their own production.

[11] = tested on: experimental animals with DR, AMD, DME, retinopathy of prematurity; experiment: intravitreal injection in experimental animals with DR, AMD, DME, retinopathy of prematurity (Examples 5-7, FIG. 16); type: in vivo; details: Example 5; 5 ng to 100.0 μg per week for 4 weeks; once in 4 weeks for 3 months; all doses tested
[12] = tested on: ARPE 19 cells; details: LPS induced ARPE 19 cells, cited from earlier work
[13] = Example 6, lipids singly and in combination, 5 ng to 100.0 μg per week for 4 weeks, once in 4 weeks for 3 months
[14] = Example 7, with or without anti-VEGF antibody, 5 ng to 25.0 μg once in 4 weeks for 3 months

Molecule | protection against neovascularization [1] | regression of DR, AMD, DME, retinopathy of prematurity [2, 13] | regression of DR, AMD, DME, retinopathy of prematurity [2, 14] | production of BDNF [3] | also measured
CC/C=C\C[C@H](O)\C=C/C=C/C=C/[C@H](O)C/C=C\C/C=C\CCC(=O)O [Neuroprotectin D1, reference compound] | protected against neovascularization | – | – | – | –
CC/C=C\C[C@H](O)/C=C/C=C\C=C\C=C\[C@@H](O)[C@@H](O)C/C=C\CCC(=O)O [resolvin D1] | protected against neovascularization | substantial regression | substantial regression | – | –
CC/C=C\C[C@H](O)\C=C/C=C/C=C/[C@H](O)C/C=C\C/C=C\CCC(=O)O [Protectin D1, protectin D1] | – | substantial regression | substantial regression | more potent than LXA4 | –
CCCCC[C@H](O)/C=C/C=C\C=C\C=C\[C@@H](O)[C@@H](O)CCCC(=O)O [LXA4, lipoxin A4] | – | substantial regression | substantial regression | – | suppression of VEGF-induced angiogenesis [4]: most effective; cytoprotective action against STZ-induced cytotoxic action [5]: most effective; production of IL-6 and TNF-α [6]: most effective; production of PGE2 and VEGF [7]: most potent; leukocyte migration and adherence [8]: most potent; reduction in the degree of DR, AMD, DME, and retinopathy of prematurity ([2]; Example 5, direct intravitreal injection, 10.0 μg/day once in a week for 4 weeks, all 40 animals): significant reduction; stability of LXA4 ([9]; Example 8, 250 ng LXA4 in saline/PBS, albumin between 0.01 to 0.0001% compared to LXA4 concentration): optimum; stability of LXA4 ([9]; Example 8, ratio LXA4/albumin 0.01% to 0.0001%, in the presence of 0.01% ethanol): more stable; stability of LXA4 ([9]; FIG. 17, albumin between 0.01% to 0.001%, LXA4 10 μg in 0.01% ethanol, pH 7.4, 37° C.): stable and active; stability of LXA4 ([9]; FIG. 17, albumin exceeded 0.01%, LXA4 10 μg in 0.01% ethanol, pH 7.4, 37° C.): decreased; stability of LXA4 at different times ([9]; FIG. 18, LXA4 100 ng in saline/PBS/ethanol, ethanol 0.01 to 0.0001% and albumin 0.01 to 0.0001%, incubation in days): best; production of other bioactive lipids such as resolvins, protectins and maresins [10]: enhanced; regression of DR, AMD, DME, retinopathy of prematurity [11]: substantial regression; IL-6 levels ([12]; 10 nmol/L, p=0.036): decreased
CC[C@@H](O)/C=C/C=C\C[C@@H](O)/C=C/C=C/C=C\[C@@H](O)CCCC(=O)O [Resolvin E1, resolvin E1] | protected against neovascularization | substantial regression | substantial regression | more potent than LXA4 | –
CC/C=C\C/C=C\C[C@H](O)\C=C/C=C/C=C/[C@H](O)C/C=C\CCC(=O)O [Maresin, maresin 1] | – | substantial regression | substantial regression | more potent than LXA4 | –
BDNF: brain-derived neurotropic factor (BDNF), a neurotrophin (protein, UniProt P23560 19-247, looked up) Neurotrophic factor BDNF …: APMKEANIRGQGGLAYPGVRTHGTLESVNGPKAGSRGLTSLADTFEHVIEELLDEDQKVRPNEENNKDADLYTSRVMLSSQVPLEPPLLFLLEEYKNYLDAANMSMRVRRHSDPARRGELSVCDSISEWVTAADKKTAVDMSGGTVTVLEKVPVSKGQLKQYFYETKCNPMGYTKEGCRGIDKRHWNSQCRTTQSYVRALTMDSKKRIGWRFIRIDTSCVCTLTIKRGR | – | – | – | – | IL-6 levels ([12]; 500 pg, p=0.0002): decreased

Source: patent US20180116990A1, “COMPOSITION OF BIOACTIVE LIPIDS AND METHODS OF USE THEREOF” (UND Life Sciences, LLC, priority 2016, published 2018)
